Our source for the Solubility, water uptake and IC50 values is US8653138B2, “Calcium salts of compounds as anti-inflammatory, immunomodulatory and anti-proliferatory agents” (4SC MG, priority 2010, dated 2014).

Data set [1] can be described thus: Aqueous solubility (OECD Guideline 105). Type of data set: physicochemical. As to conditions: water, 24 h at 23° C., HPLC-UV. On the procedure:
Aqueous solubilities of Vidofludimus free acid (2-(3-Fluoro-3′-methoxybiphenyl-4-ylcarbamoyl)-cyclopent-1-enecarboxylic acid), its potassium salt and its Calcium salt were examined. The principle of the method was based on the OECD Guideline for the testing of chemicals, 105 “Water Solubility”. 2 mg of the experimental compounds were weighed into Eppendorf vials of 1.5 ml. Subsequently, water was added to arrive at a concentration of 5 mg/ml. After preparation of the solubility samples they were incubated for 24 h at 23° C. under continuous shaking. Then the samples were centrifuged to separate the precipitate from the dissolved compound. The supernatants were transferred into labelled HPLC vials for quantification by HPLC-UV. Finally, these HPLC samples were analysed on the HPLC-UV System and their contents were calculated from the calibration curves, The concentration of compound in the supernatant equals its solubility in water. The following aqueous solubilities were found for Vidofludimus free acid and its potassium-and calcium salt: […]

Data set [2] is described as follows: Dynamic vapor sorption (DVS). Type of data set: physicochemical. An excerpt: DVS (SMS): Surface Measurement Systems Ltd. DVS-1 water vapour sorption analyzer. The sample is placed on a platinum sample pan and allowed to equilibrate at a given relative humidity (r.h.), usually 50% r.h. Then, a pre-defined humidity program was started with a scanning rate of 5% r.h. change per hour. First step: from 50% r.h. to 0% r.h, (in case of a possibly hydrate as starting material 50 to 95% r.h.), second step: from 0% to 95% r.h. (in case of a possibly hydrate as starting material 95 to 0% r.h.)

For another data set, the target named is T1, recombinant human DHODH (Homo sapiens, UniProt Q02127).
T1 construct: provided by Prof; M. Löffler, Marburg, Germany (gift, not a commercial vendor)
T1 sequence (Q02127 whole entry): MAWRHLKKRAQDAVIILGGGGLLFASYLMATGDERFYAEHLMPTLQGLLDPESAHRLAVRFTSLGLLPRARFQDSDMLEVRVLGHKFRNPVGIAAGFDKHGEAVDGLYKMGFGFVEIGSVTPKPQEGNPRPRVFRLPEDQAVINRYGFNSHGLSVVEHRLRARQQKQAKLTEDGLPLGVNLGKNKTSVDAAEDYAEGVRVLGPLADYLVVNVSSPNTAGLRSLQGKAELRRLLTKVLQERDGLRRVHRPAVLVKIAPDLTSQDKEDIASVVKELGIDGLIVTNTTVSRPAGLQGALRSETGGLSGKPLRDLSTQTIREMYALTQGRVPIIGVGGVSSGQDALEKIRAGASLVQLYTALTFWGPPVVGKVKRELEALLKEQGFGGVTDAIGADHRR
The data set can be described thus: Inhibition assay of DHODH activity, human enzyme. As to conditions: class symbol (head prints μM, key in nM). Type of data set: biochemical. On the procedure:
The standard assay mixture contained 50 μM decyclo ubichinone, 100 μM dihydroorotate, 60 μM 2,6-dichloroindophenol, as well as 20 mU DHODH. The volume activity of the recombinant enzyme used was 30 U/ml. Measurements were conducted in 50 mM TrisHCl (150 mM KCl, 0.1% Triton X-100, pH 8.0) at 30° C. in a final volume of 1 ml. The components were mixed, and the reaction was started by adding dihydroorotate. The course of reaction was followed by spectrophotometrically measuring the decrease in absorption at 600 nm for 2 min.
Inhibitory studies were conducted in a standard assay with additional variable amounts of inhibitor.
These investigations were carried out with recombinant human as well as with recombinant murine DHODH provided by Prof. M. Löffler, Marburg, Germany [M. Löffler, Chem. Biol. Interact.

Usually Solubility stands for the concentration that dissolves in the medium under given conditions. One may read the IC50 as the concentration needed to halve the response being measured.

Values after ≈ are worked out from the molar mass of the structure shown. Structures can show the parent of a compound that is named as a salt. A value given as a limit tells only on which side of the number the result lay.

On to `COc1cccc(-c2ccc(NC(=O)C3=C(C(=O)O)CCC3)c(F)c2)c1` [Compound 26, 2-((3-fluoro-3′-methoxy-[1,1′-biphenyl]-4-yl)carbamoyl)cyclopent-1-enecarboxylic acid], for which, in data set [1] (listed as Vidofludimus free acid), the Solubility is 9.5 µg/mL (≈ 26.7 µM).
For `COc1cccc(-c2ccc(NC(=O)C3=C(C(=O)O)CCC3)c(F)c2)c1` [Calcium salt, calcium salt of 2-(3-Fluoro-3′-methoxy-biphenyl-4-ylcarbamoyl)-cyclopent-1-enecarboxylic acid], the water uptake is 0.4% in data set [2] (at 95% r.h. (not reversible)) and 0.3% in data set [2] (at about 85% r.h., after desolvation). In data set [1], the Solubility amounted to 16.2 µg/mL.
For `COc1cccc(-c2ccc(NC(=O)C3=C(C(=O)O)CCC3)c(F)c2)c1` [Potassium salt], in data set [1], the Solubility was 4700 µg/mL.
`N#Cc1cccc(-c2ccc(NC(=O)C3=C(C(=O)O)CCC3)cc2Cl)c1` [Compound 18, 2-((2-chloro-3′-cyano-[1,1′-biphenyl]-4-yl)carbamoyl)cyclopent-1-enecarboxylic acid]: at recombinant human DHODH, the 50% inhibitory concentration (IC50) is < 0.8 µM.
Same read-out and setting: the same measure for `O=C(O)C1=C(C(=O)Nc2ccc(OCc3ccccc3C(F)(F)F)c(Cl)c2)CCC1` [Compound 68]: < 0.8 µM; for `O=C(O)C1=C(C(=O)Nc2c(F)cc(-c3cccc(OC(F)(F)F)c3)cc2F)CCC1` [Compound 64, 2-((3,5-difluoro-3′-(trifluoromethoxy)-[1,1′-biphenyl]-4-yl)carbamoyl)cyclopent-1-enecarboxylic acid]: < 0.8 µM.
`COc1cc(-c2ccccc2F)ccc1NC(=O)C1=C(C(=O)O)CCC1` [Compound 36, 2-((2′-fluoro-3-methoxy-[1,1′-biphenyl]-4-yl)carbamoyl)cyclopent-1-enecarboxylic acid]: the IC50 on recombinant human DHODH is < 0.8 µM.
Same read-out and setting: the same measure for `COc1cccc(-c2ccc(NC(=O)C3=C(C(=O)O)CCC3)c(OC)c2)c1` [Compound 39, 2-((3,3′-dimethoxy-[1,1′-biphenyl]-4-yl)carbamoyl)cyclopent-1-enecarboxylic acid]: < 0.8 µM.
